Results: US10632125B2, “MTH1 inhibitors for treatment of inflammatory and autoimmune conditions” (THOMAS HELLEDAYS STIFTELSE FÖR MEDICINSK FORSKNING, priority 2014, dated 2020)
pIC50: −log10 of the molar value.

target: MTH1 (Homo sapiens, UniProt P36639); test: MTH1 enzymatic assay (malachite green, coupled to pyrophosphatase); format: biochemical; details: dGTP 100 μM, MTH1 6 nM; 96- or 384-well format; read-out: IC50

pIC50, > 6.70:
CNc1cc(-c2cc(Cl)ccc2C#N)nc(N)n1 [Example 190, 2-[2-amino-6-(methylamino)pyrimidin-4-yl]-4-chlorobenzonitrile]
CNc1cc(-c2cc(Cl)c(Cl)cc2C)nc(N)n1 [Example 191, 6-(4,5-dichloro-2-methylphenyl)-4-N-methylpyrimidine-2,4-diamine]
CNc1cc(-c2cc(C)c(F)cc2C)nc(N)n1 [Example 193, 6-(4-fluoro-2,5-dimethylphenyl)-4-N-methylpyrimidine-2,4-diamine]
CNc1cc(-c2cc(C(F)(F)F)ccc2C)nc(N)n1 [Example 194, 4-N-methyl-6-[2-methyl-5-(trifluoromethyl)phenyl]pyrimidine-2,4-diamine]
CNc1cc(-c2cc(Cl)c(C(F)(F)F)cc2C)nc(N)n1 [Example 195, 6-[5-chloro-2-methyl-4-(trifluoromethyl)phenyl]-4-N-methylpyrimidine-2,4-diamine]
CNc1cc(-c2cc(C(F)(F)F)ccc2C(F)(F)F)nc(N)n1 [Example 196, 6-[2,5-bis(trifluoromethyl)phenyl]-4-N-methylpyrimidine-2,4-diamine]
CNc1cc(-c2cc(C)ccc2F)nc(N)n1 [Example 200, 6-(2-fluoro-5-methylphenyl)-4-N-methylpyrimidine-2,4-diamine]
CNc1cc(-c2cc(C)ccc2OC)nc(N)n1 [Example 204, 6-(2-methoxy-5-methylphenyl)-4-N-methylpyrimidine-2,4-diamine]
CNc1cc(-c2cc(F)ccc2Cl)nc(N)n1 [Example 205, 6-(2-chloro-5-fluorophenyl)-4-N-methylpyrimidine-2,4-diamine]
CNc1cc(-c2cc(C#N)ccc2F)nc(N)n1 [Example 206, 3-[2-amino-6-(methylamino)pyrimidin-4-yl]-4-fluorobenzonitrile]
CNc1cc(-c2cc(OC)ccc2Cl)nc(N)n1 [Example 207, 6-(2-chloro-5-methoxyphenyl)-4-N-methylpyrimidine-2,4-diamine]
CNc1cc(-c2cc(Cl)c(C)cc2F)nc(N)n1 [Example 214, 6-(5-chloro-2-fluoro-4-methylphenyl)-4-N-methylpyrimidine-2,4-diamine]
Cc1cc(-c2cc(NC3CC3)nc(N)n2)c(C)cc1F [Example 216, 4-N-cyclopropyl-6-(4-fluoro-2,5-dimethylphenyl)pyrimidine-2,4-diamine]
COc1cc(C)c(-c2cc(NC3CC3)nc(N)n2)cc1C [Example 217, 4-N-cyclopropyl-6-(4-methoxy-2,5-dimethylphenyl)pyrimidine-2,4-diamine]
Cc1ccc(C)c(-c2cc(NC3CC3)nc(N)n2)c1 [Example 218, 4-N-cyclopropyl-6-(2,5-dimethylphenyl)pyrimidine-2,4-diamine]
CCNc1cc(-c2cc(Cl)ccc2C)nc(N)n1 [Example 221, 6-(5-chloro-2-methylphenyl)-4-N-ethylpyrimidine-2,4-diamine]
Cc1cc(-c2cc(NCCc3ccc(Cl)cc3)nc(N)n2)c(C)cc1F [Example 223, 4-N-[2-(4-chlorophenyl)ethyl]-6-(4-fluoro-2,5-dimethylphenyl)pyrimidine-2,4-diamine]
Cc1ccc(C)c(-c2cc(NCCc3ccc(Cl)cc3)nc(N)n2)c1 [Example 224, 4-N-[2-(4-chlorophenyl)ethyl]-6-(2,5-dimethylphenyl)pyrimidine-2,4-diamine]
CNc1cc(-c2ccc(/C=C/C(=O)O)cc2)nc(N)n1 [Example 233, (2E)-3-{4-[2-amino-6-(methylamino)pyrimidin-4-yl]phenyl}prop-2-enoic acid]
Cc1cccc(-c2cc(NCC3CN(C(=O)OC(C)(C)C)C3)nc(N)n2)c1C [Example 234, tert-butyl 3-({[2-amino-6-(2,3-dimethylphenyl)pyrimidin-4-yl]amino}methyl)-azetidine-1-carboxylate]
Nc1nc(NC2CC2)cc(-c2ccc3[nH]ccc3c2)n1 [Example 235, 4-N-cyclopropyl-6-(1H-indol-5-yl)pyrimidine-2,4-diamine]
Cc1cccc(-c2cc(NCC(C)(C)CNC(=O)OC(C)(C)C)nc(N)n2)c1C [Example 239, tert-Butyl (3-((2-amino-6-(2,3-dimethylphenyl)pyrimidin-4-yl)amino)-2,2-dimethyl-propyl)carbamate]
CNc1cc(-c2cc(Cl)c(OC)cc2C)nc(N)n1 [Example 240, 6-(5-chloro-4-methoxy-2-methylphenyl)-4-N-methylpyrimidine-2,4-diamine]
Cc1c(Cl)cccc1-c1cc(NC(C)Cc2c[nH]c3ccccc23)nc(N)n1 (centres unmarked) [Example 243, 6-(3-chloro-2-methylphenyl)-4-N-[1-(1H-indol-3-yl)propan-2-yl]pyrimidine-2,4-diamine]
Cc1cccc(-c2cc(NCCOc3ccccc3Cl)nc(N)n2)c1C [Example 247, 4-N-[2-(2-chlorophenoxy)ethyl]-6-(2,3-dimethylphenyl)pyrimidine-2,4-diamine]
Cc1cccc(-c2cc(NCCc3nc4cc(Cl)ccc4[nH]3)nc(N)n2)c1C [Example 248, 4-N-[2-(5-chloro-1H-1,3-benzodiazol-2-yl)ethyl]-6-(2,3-dimethylphenyl)pyrimidine-2,4-diamine]
Cc1cccc(-c2cc(NCC(C)Oc3cccnc3)nc(N)n2)c1C (centres unmarked) [Example 250, 6-(2,3-dimethylphenyl)-4-N-[2-(pyridin-3-yloxy)propyl]pyrimidine-2,4-diamine]
Cc1cccc(-c2cc(NCc3ccc4[nH]ncc4c3)nc(N)n2)c1C [Example 251, 6-(2,3-dimethylphenyl)-4-N-(1H-indazol-5-ylmethyl)pyrimidine-2,4-diamine]
COc1cc(CNc2cc(-c3cccc(C)c3C)nc(N)n2)ccn1 [Example 253, 6-(2,3-dimethylphenyl)-4-N-[(2-methoxypyridin-4-yl)methyl]pyrimidine-2,4-diamine]
CNc1cc(-c2cccc(C#N)c2C)nc(N)n1 [Example 258, 3-[2-amino-6-(methylamino)pyrimidin-4-yl]-2-methylbenzonitrile]
CNc1cc(-c2cccc3c2OCC3)nc(N)n1 [Example 261, 6-(2,3-dihydro-1-benzofuran-7-yl)-4-N-methylpyrimidine-2,4-diamine]
CNc1cc(-c2cc(S(=O)(=O)N3CCOCC3)ccc2C)nc(N)n1 [Example 262, 4-N-methyl-6-[2-methyl-5-(morpholine-4-sulfonyl)phenyl]pyrimidine-2,4-diamine]
Nc1nc(NCCc2ccc(Cl)cc2)cc(-c2cccc(Cl)c2Cl)n1 [Example 263, 4-N-[2-(4-chlorophenyl)ethyl]-6-(2,3-dichlorophenyl)pyrimidine-2,4-diamine]
Cc1cccc(-c2cc(NCCc3cccnc3)nc(N)n2)c1C [Example 268, 6-(2,3-dimethylphenyl)-4-N-[2-(pyridin-3-yl)ethyl]pyrimidine-2,4-diamine]
Cc1cccc(-c2cc(NCCNC(=O)OC(C)(C)C)nc(N)n2)c1C [Example 271, tert-butyl N-(2-{[2-amino-6-(2,3-dimethylphenyl)pyrimidin-4-yl]amino}ethyl)-carbamate]
Cc1cccc(-c2cc(NCCN(C)C(=O)OC(C)(C)C)nc(N)n2)c1C [Example 274, tert-butyl N-(2-{[2-amino-6-(2,3-dimethylphenyl)pyrimidin-4-yl]amino}ethyl)-N-methylcarbamate]
Cc1cccc(-c2cc(NCc3ccc(S(C)(=O)=O)cc3)nc(N)n2)c1C [Example 279, 6-(2,3-dimethylphenyl)-4-N-[(4-methanesulfonylphenyl)methyl]pyrimidine-2,4-diamine]
Cc1cccc(-c2cc(NCc3ccc(N4CCN(C)CC4)cc3)nc(N)n2)c1C [Example 280, 6-(2,3-dimethylphenyl)-4-N-{[4-(4-methylpiperazin-1-yl)phenyl]methyl}pyrimidine-2,4-diamine]
Cc1cccc(-c2cc(NCC3CCN(C(=O)OC(C)(C)C)CC3)nc(N)n2)c1C [Example 283, tert-butyl 4-({[2-amino-6-(2,3-dimethylphenyl)pyrimidin-4-yl]amino}methyl)-piperidine-1-carboxylate]
CC(=O)NCCCCNc1cc(-c2cccc(Cl)c2Cl)nc(N)n1 [Example 303, N-(4-{[2-Amino-6-(2,3-dichlorophenyl)pyrimidin-4-yl]amino}butyl)acetamide]
Nc1nc(NCc2ccc(-c3csnn3)cc2)cc(-c2cccc(Cl)c2Cl)n1 [Example 305, 6-(2,3-Dichlorophenyl)-4-N-{[4-(1,2,3-thiadiazol-4-yl)phenyl]methyl}pyrimidine-2,4-diamine]
C=CC(=O)Nc1cccc(-c2cc(NC)nc(N)n2)c1 [Example 309, N-{3-[2-Amino-6-(methylamino)pyrimidin-4-yl]phenyl}prop-2-enamide]
CNc1cc(-c2cccc(NC(=O)/C=C/c3ccccc3)c2)nc(N)n1 [Example 310, (2E)-N-{3-[2-Amino-6-(methylamino)pyrimidin-4-yl]phenyl}-3-phenylprop-2-enamide]
C=CC(=O)Nc1cccc(-c2cc(NC)nc(N)n2)c1C [Example 311, N-{3-[2-Amino-6-(methylamino)pyrimidin-4-yl]-2-methylphenyl}prop-2-enamide]
